For assay [1], the target named is T1, human DLK (Homo sapiens, UniProt Q12852).
T1 sequence (Q12852 1-859): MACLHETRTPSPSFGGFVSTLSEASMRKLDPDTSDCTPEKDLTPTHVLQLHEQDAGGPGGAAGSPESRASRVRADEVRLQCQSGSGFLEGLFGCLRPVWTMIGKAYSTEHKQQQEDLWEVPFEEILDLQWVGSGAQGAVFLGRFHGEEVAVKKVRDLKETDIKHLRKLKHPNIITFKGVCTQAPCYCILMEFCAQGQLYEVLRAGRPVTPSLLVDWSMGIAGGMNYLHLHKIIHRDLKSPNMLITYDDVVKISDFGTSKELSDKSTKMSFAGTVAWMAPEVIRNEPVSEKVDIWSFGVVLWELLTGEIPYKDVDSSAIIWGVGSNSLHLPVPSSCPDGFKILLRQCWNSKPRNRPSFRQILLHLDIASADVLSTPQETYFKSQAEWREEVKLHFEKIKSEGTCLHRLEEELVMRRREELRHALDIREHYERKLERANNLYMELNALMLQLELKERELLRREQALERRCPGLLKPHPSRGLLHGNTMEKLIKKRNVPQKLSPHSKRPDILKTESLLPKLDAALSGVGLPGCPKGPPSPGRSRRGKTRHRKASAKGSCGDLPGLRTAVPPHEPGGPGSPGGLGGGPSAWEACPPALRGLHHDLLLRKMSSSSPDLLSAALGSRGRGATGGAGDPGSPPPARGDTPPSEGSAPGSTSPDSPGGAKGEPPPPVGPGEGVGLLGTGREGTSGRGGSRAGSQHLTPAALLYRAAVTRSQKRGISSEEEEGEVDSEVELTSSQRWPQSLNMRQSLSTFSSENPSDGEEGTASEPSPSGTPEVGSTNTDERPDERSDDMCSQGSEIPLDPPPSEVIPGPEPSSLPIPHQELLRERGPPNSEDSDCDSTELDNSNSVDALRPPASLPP
The assay is described as follows: Phospho-cJun Cellular Assay. The class given is cell-based. The note with it: HEK293 cells stably transfected with Dox-inducible human DLK; p-cJun (Ser63); 5 h compound incubation. Further details: expressed in transfected cells. The procedure, abridged: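 HEK293 cells with doxycycline-induced human DLK (induced 20 h; uninduced cells as negative control) treated with compound for 5 h at 37 °C. Phospho-cJun (Ser63) measured in lysates with detection-antibody kit; IC50 from variable-slope dose-response fit.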

Assay [2] has as its target T1, human DLK. Kind of assay: DLK Kd Determinations (KINOMEscan KdELECT, DiscoveRx). Also noted: full length of human DLK (amino acids 1-859); host or cells: transiently transfected HEK293 cells; unpurified extract. The note with it: fusion protein of full length human DLK (amino acids 1-859) and NFkB DNA binding domain; qPCR readout; duplicate. The essentials:
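Competition binding of full-length human DLK (aa 1-859)-NFkB DBD fusion, DNA-tagged, from HEK293 extracts against an immobilized ligand; 1 h at room temperature, 0.9% DMSO. Bead-bound kinase was quantified by qPCR. Kd came from an 11-point 3-fold series (top 30,000 nM), in duplicate, with Hill slope fixed at −1.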

`CN1CCN(C2CC3C(C2)C3n2cc(-c3cnc(N)c(OC(F)F)c3)nc2C2CC2)CC1` (stereo not drawn) [Example 137, 5-(2-cyclopropyl-1-(3-(4-methylpiperazin-1-yl)bicyclo[3.1.0]hexan-6-yl)-1H-imidazol-4-yl)-3-(difluoromethoxy)pyridin-2-amine] returned an IC50 against human DLK [1] of 710 nM. The compound also yielded a Kd on human DLK [2] of 22 nM.
On the same counts, the results for `CC(C)c1nc(-c2cnc(N)c(C(F)(F)F)c2)cn1[C@H]1[C@@H]2CC(N3CCCOCC3)C[C@@H]21` (stereo partly drawn) [Example 142, 5-(1-(3-(1,4-oxazepan-4-yl)bicyclo[3.1.0]hexan-6-yl)-2-isopropyl-1H-imidazol-4-yl)-3-(trifluoromethyl)pyridin-2-amine] are 934 nM and 9.4 nM.
In the same order, the values of `CC(C)c1nc(-c2cnc(N)c(C(F)(F)F)c2)cn1[C@H]1[C@@H]2CC(N3CCOC[C@@H]3C)C[C@@H]21` (stereo partly drawn) [Example 143, 5-(2-isopropyl-1-(3-((S)-3-methylmorpholino)bicyclo[3.1.0]hexan-6-yl)-1H-imidazol-4-yl)-3-(trifluoromethyl)pyridin-2-amine] are 1510 nM and 19 nM.
In the same order, the values of `CC(C)c1nc(-c2cnc(N)c(C(F)(F)F)c2)cn1[C@H]1[C@@H]2CC(N3CCN(C)CC3)C[C@@H]21` (stereo partly drawn) [Example 144, 5-(2-isopropyl-1-(3-(4-methylpiperazin-1-yl)bicyclo[3.1.0]hexan-6-yl)-1H-imidazol-4-yl)-3-(trifluoromethyl)pyridin-2-amine] are 859 nM and 38 nM.
At human DLK [1], `CC1COCCN1C1CC2C(C1)C2n1cc(-c2cnc(N)c(OC(F)(F)F)c2)nc1C1CC1` (stereo not drawn) [Example 147, 5-(2-cyclopropyl-1-(3-(3-methylmorpholino)bicyclo[3.1.0]hexan-6-yl)-1H-imidazol-4-yl)-3-(trifluoromethoxy)pyridin-2-amine] displayed an IC50 of 893 nM. Moreover, the Kd at human DLK [2] was determined as 23 nM.
On the same counts, the results for `CC1COCCN1C1C[C@@H]2[C@H](C1)[C@H]2n1cc(-c2cnc(N)c(OC(F)(F)F)c2)nc1C1CC1` (stereo partly drawn) [Example 148, 5-(2-cyclopropyl-1-(3-(3-methylmorpholino)bicyclo[3.1.0]hexan-6-yl)-1H-imidazol-4-yl)-3-(trifluoromethoxy)pyridin-2-amine] are 710 nM and 22 nM.
As to `Nc1ncc(-c2cn([C@H]3[C@@H]4CC(N5CCCOCC5)C[C@@H]43)c(C3CC3)n2)cc1OC(F)(F)F` (stereo partly drawn) [Example 149, 5-(1-(3-(1,4-oxazepan-4-yl)bicyclo[3.1.0]hexan-6-yl)-2-cyclopropyl-1H-imidazol-4-yl)-3-(trifluoromethoxy)pyridin-2-amine], the 50% inhibitory concentration (IC50) against human DLK [1] turned out to be 574 nM. The compound also came in with a Kd on human DLK [2] of 37 nM.
On human DLK [1], `CN1CCN(C2C[C@@H]3[C@H](C2)[C@H]3n2cc(-c3cnc(N)c(OC(F)F)c3)nc2C2CC2)CC1` (stereo partly drawn) [Example 150, 5-(2-cyclopropyl-1-(3-(4-methylpiperazin-1-yl)bicyclo[3.1.0]hexan-6-yl)-1H-imidazol-4-yl)-3-(difluoromethoxy)pyridin-2-amine] returned an IC50 of 1090 nM. For the same compound, the Kd at human DLK [2] came out at 54 nM.
In the same order, the values of `CC(C)Cc1nc(-c2cnc(N)c(OC(F)(F)F)c2)cn1[C@H]1[C@@H]2CC(N3CCN(C)CC3)C[C@@H]21` (stereo partly drawn) [Example 158, 5-(2-isobutyl-1-(3-(4-methylpiperazin-1-yl)bicyclo[3.1.0]hexan-6-yl)-1H-imidazol-4-yl)-3-(trifluoromethoxy)pyridin-2-amine] are 500 nM and 12 nM.

These data come from US20180057507A1, “INHIBITORS OF DUAL LEUCINE ZIPPER (DLK) KINASE FOR THE TREATMENT OF DISEASE” (Board of Regents, The University of Texas System, priority 2016, published 2018).
